Experimental data: patent publication US11541129B2, “Nanoreservoir coated medical devices, biomaterials, and bioprosthetics” (Université de Liège, priority 2016, dated 2023)
≈ marks a conversion by molar mass, not a printed value.

Test system: platelets
Assay: ADP-induced platelet aggregation in PRP (light transmission aggregometry)
Assay type: cell-based
Settings: Homo sapiens, 10 μM ADP, 37° C., read-out: IC50 concentration of free ticagrelor, ADP-induced platelet aggregation
Description: (A) PRP was pre-incubated for 10 min with a solution of nanoreservoir containing increasing concentrations of ticagrelor or with free ticagrelor, as indicated. Platelet aggregation was induced by adding 10 μM ADP at 37° C. under stirring conditions (1200 rpm). Percentages of maximum aggregation recorded by light transmission aggregometry are shown. Data represent means±SD (*p<0.05, **p<0.01, ***p<0.001). (B) Maximum platelet aggregation obtained in the presence of different ratios of ticagrelor-loaded nanogels and minocycline-loaded nanogels. NG: nanogel bearing PEG 1500; NGT: ticagrelor-loaded nanogel bearing PEG 1500; NGM: minocycline-loaded nanogel bearing PEG 1500. Data represent means±SD.
Platelet-rich-plasma (PRP) was prepared by centrifugation of citrate anticoagulated human blood at 100×g for 15 min at room temperature. Platelet aggregation experiments were performed on PRP aliquots under stirring (1200 rpm) at 37° C. using light aggregometry (Chrono-Log Model 700 aggregometer, Kordia).
For this purpose, 1 ml of nanogel suspensions loaded with increasing concentrations of ticagrelor was centrifuged at 12000 g for 15 minutes, washed 2 times in PBS and resuspended in 300 μL of PBS. 260 μL of platelet-rich-plasma (PRP) was incubated with 10 μL of purified nanogel suspensions for 10 min. Platelet aggregation was then induced by adding 10 μM ADP at 37° C. under stirring conditions. […]

**Q.** For CCCSc1nc(N[C@@H]2C[C@H]2c2ccc(F)c(F)c2)c2nnn([C@@H]3C[C@H](OCCO)[C@@H](O)[C@H]3O)c2n1 [ticagrelor], which IC50 is on record?
**A.** 1.8 µg/mL (≈ 3.44 µM)
